The test system of one assay is HT29. In words: CellTiterGlo cell viability assay, HT29. In kind it is cell-based. To be noted: Homo sapiens, HT-29, 72 h, HT29, 72 h; for EC50: read-out: Ab EC50; for inhibition at 198 µM: percentage inhibition at the highest concentration tested, read-out: Top Inhibit. Here is the method:
(§1) A subset of compounds of the invention were assayed for their cytotoxic activity in an array of different solid tumours and haematological malignancies using the following assay.
(§2) In vitro viability assay were performed to assess the effects of compounds on cell viability in selected cell lines over 72 h using the CellTiterGlo (CTG, Promega-G7573) assay. The tests were performed in duplicates with treatment of compounds at 9 points, 3.16 folds titration in 96 well plates over ˜72 h. The compound starting concentrations were 198 μM. Cell viability assay using CellTiterGlo in 96-well plate were performed. Compound treatment 72 h, standard growth conditions, duplicates. Compounds were dissolved to 40 mM with thawed […]. Compounds were serially diluted at 3.16 fold in thawed DMSO, and warmed to 37° C. before being dissolved in media (2 μL+200 μL). After compounds were dissolved in media, media containing compounds were warmed to 37° C. in incubator and then compounds in media were added to cell plates (50 μL+50 μL) in duplicates. The compounds' final concentrations were from 198 μM to 19.8 nM. All compound solubilities were checked and recorded again, then the plates were transferred to CO2 tissue culture incubator immediately and incubated for 3 days. DMSO final concentration is 0.5%. The parent nucleoside in each case was tested as a comparator, as was an exemplary ProTide. The drugs of the ProTide class that were tested were as follows:
(§3) The following cell lines were tested and are referred to in the Table 1 below:
(§4) In Tables 2, 3 and 4, ‘Ab EC50’ refers to the absolute EC50 and ‘Top inhibit’ refers to the percentage inhibition achieved at the highest concentration tested.
Background: Cellular ATP, detected with luciferase, serves as a proxy for viable cell number.

Another assay has as its system HepG2. Nature of the assay: CellTiterGlo cell viability assay, HepG2. It counts as cell-based. The note with it: Homo sapiens, HepG2, 72 h; for EC50: read-out: Ab EC50; for inhibition at 198 µM: percentage inhibition at the highest concentration tested, read-out: Top Inhibit. The method, then: as §1, §2, §3, §4
The next assay deals with OVCAR 3. In words: CellTiterGlo cell viability assay, OVCAR 3. It counts as cell-based. The note with it: Homo sapiens; for inhibition at 198 µM: OVCAR-3, 72 h, percentage inhibition at the highest concentration tested, read-out: Top Inhibit; for EC50: OVCAR 3, 72 h, read-out: Ab EC50. The method, then: as §1, §2, §3, §4
A further assay concerns MCF-7. Nature of the assay: CellTiterGlo cell viability assay, MCF-7. To be noted: Homo sapiens, MCF7, 72 h, MCF-7, 72 h; for inhibition at 198 µM: percentage inhibition at the highest concentration tested, read-out: Top Inhibit. It counts as cell-based. Here is the method: as §1, §2, §3, §4
The test system of a further assay is CCRF-CEM. In words: CellTiterGlo cell viability assay, CCRF-CEM. In kind it is cell-based. The note with it: Homo sapiens, 72 h; for EC50: read-out: Ab EC50; for inhibition at 198 µM: percentage inhibition at the highest concentration tested, read-out: Top Inh. The method, then:
as §1, §2, §3, §4

Another assay concerns MOLT-4. Nature of the assay: CellTiterGlo cell viability assay, MOLT-4. It counts as cell-based. The note with it: Homo sapiens, MOLT-4, 72 h; for inhibition at 198 µM: percentage inhibition at the highest concentration tested, read-out: Top Inh; for EC50: read-out: Ab EC50. The method, then: as §1, §2, §3, §4
The subject of a further assay is K562. In words: CellTiterGlo cell viability assay, K562. It counts as cell-based. To be noted: Homo sapiens; for inhibition at 198 µM: percentage inhibition at the highest concentration tested, read-out: Top Inh; for EC50: read-out: Ab EC50. The method, then:
as §1, §2, §3, §4

Another assay has as its system HL-60. In words: CellTiterGlo cell viability assay, HL-60. In kind it is cell-based. To be noted: Homo sapiens, HL-60, 72 h; for EC50: read-out: Ab EC50; for inhibition at 198 µM: percentage inhibition at the highest concentration tested, read-out: Top Inh. Here is the method: as §1, §2, §3, §4
A further assay has as its system RL. In words: CellTiterGlo cell viability assay, RL. It counts as cell-based. To be noted: Homo sapiens, 72 h; for inhibition at 198 µM: percentage inhibition at the highest concentration tested, read-out: Top Inh. The method, then:
as §1, §2, §3, §4

The test system of another assay is RPMI-8226. Nature of the assay: CellTiterGlo cell viability assay, RPMI-8226. In kind it is cell-based, Human. To be noted: Homo sapiens, RPMI-8226, 72 h; for EC50: read-out: Ab EC50; for inhibition at 198 µM: percentage inhibition at the highest concentration tested, read-out: Top Inh. The method, then: as §1, §2, §3, §4
The next assay deals with KG-1. Nature of the assay: CellTiterGlo cell viability assay, KG-1. It counts as cell-based. To be noted: Homo sapiens, KG-1, 72 h; for EC50: read-out: Ab EC50; for inhibition at 198 µM: percentage inhibition at the highest concentration tested, read-out: Top Inhibit. The method, then:
as §1, §2, §3, §4

[1] abbreviates: K562, K 562, 72 h, Table 4 classes.
Setting [2] is: Table 4 classes, read-out: Ab EC50.

Experimental findings from US11560400B2, “Salts of diphosphate phosphoramidate of nucleosides as anticancer compounds” (NuCana plc, priority 2017, dated 2023) are described below.

Where a name gives a salt, the structure may show the parent alone. Read-outs that look alike come from different tables or passages of the source. Bounds are passed on as bounds.

`CC(C)OC(=O)[C@H](C)NP(=O)(Oc1ccccc1)OP(=O)(O)OC[C@H]1O[C@@H](n2cnc3c(N)nc(Cl)nc32)[C@H](F)C1O` (stereo partly drawn) [Example 15, 2-Chloro-9-(2′-Deoxy-2′-fluoro-β-D-arabinofuranosyl)adenine-5′-O-[1-phenyl(isopropoxy-L-alaninyl)] Diphosphate Triethylammonium Salt]: the EC50 – broadly, the concentration at which the effect is half-maximal – in the assay on HT29 (absolute EC50, numeric values) was 330 nM; in the assay on HepG2 (absolute EC50, numeric values), 370 nM; in the assay on OVCAR 3 (absolute EC50, numeric values) it was greater than 198 µM; in the assay on CCRF-CEM (absolute EC50, numeric values), less than 20 nM; in the assay on MOLT-4 (absolute EC50, numeric values) it was 30 nM; in the assay with K562 (K562, 72 h, absolute EC50, numeric values) it was greater than 198 µM. Also, the EC50 was 60 nM in the assay with HL-60 (absolute EC50, numeric values); 30.3 µM in the assay with RPMI-8226 (absolute EC50, numeric values); 90 nM in the assay on KG-1 (absolute EC50, numeric values). The inhibition at 198 µM turned out to be 69% in the assay on HT29; 51% in the assay with HepG2; 41% in the assay with OVCAR 3; 47% with MCF-7; 99% in the assay with CCRF-CEM; 90% in the assay on MOLT-4. In addition, the inhibition at 198 µM in the assay on K562 (K562, 72 h) came out at 36%; with HL-60, 96%; in the assay with RL it was 49%; in the assay on RPMI-8226, 80%; in the assay with KG-1, 92%.

On to `Nc1nc(Cl)nc2c1ncn2[C@@H]1O[C@H](COP(=O)(O)OP(=O)(N[C@@H](Cc2ccccc2)C(=O)OCc2ccccc2)Oc2ccccc2)C(O)[C@H]1F` (stereo partly drawn) [Example 22, 2-Chloro-9-(2′-Deoxy-2′-fluoro-β-D-arabinofuranosyl)adenine-5′-O-[l-phenyl(benzoxy-L-phenylalaninyl)] Diphosphate Triethylammonium Salt], for which the EC50 was 200 to 1000 nM with HT29 (Table 4 classes); greater than 10 µM in the assay with OVCAR 3 (Table 4 classes); less than 200 nM in the assay on CCRF-CEM (Table 4 classes); less than 200 nM in the assay on MOLT-4 (Table 4 classes); greater than 10 µM with K562 (setting [1]); less than 200 nM with HL-60 (Table 4 classes). The EC50 in the assay with RPMI-8226 (Table 4 classes) was 1 to 5 µM; in the assay on KG-1 (Table 4 classes), less than 200 nM. Further, the inhibition at 198 µM with HT29 worked out at 69%; in the assay with HepG2, 47%; with OVCAR 3, 73%; in the assay on MCF-7, 50%; in the assay with CCRF-CEM it was 99%; in the assay on MOLT-4 it was 89%. Further, the inhibition at 198 µM was found to be 62% in the assay on K562 (K562, 72 h); 95% in the assay with HL-60; 42% with RL; 86% in the assay on RPMI-8226; 92% in the assay on KG-1.

`CC(C)(NP(=O)(Oc1ccccc1)OP(=O)(O)OC[C@H]1O[C@@H](n2cnc3c(N)nc(Cl)nc32)[C@H](F)C1O)C(=O)OCc1ccccc1` (stereo partly drawn) [Example 10, 2-Chloro-9-(2′-Deoxy-2′-fluoro-β-D-arabinofuranosyl)adenine-5′-O-[phenyl(benzoxy-dimethylglycinyl)] Diphosphate Triethylammonium Salt]: the EC50 in the assay on HT29 (Table 4 classes) is 200 to 1000 nM; in the assay on HepG2 (Table 4 classes) it was 1000 to 5000 nM; with OVCAR 3 (Table 4 classes) it was greater than 10 µM; with MCF-7 (setting [2]), greater than 10 µM; with CCRF-CEM (Table 4 classes), less than 200 nM; in the assay with MOLT-4 (Table 4 classes) it was less than 200 nM. Also, the EC50 in the assay on K562 (setting [1]) was greater than 10 µM; with HL-60 (Table 4 classes) it was less than 200 nM; in the assay with RPMI-8226 (Table 4 classes) it was greater than 10 µM; with KG-1 (Table 4 classes), less than 200 nM. The inhibition at 198 µM stood at 70% with HT29; 55% in the assay on HepG2; 42% in the assay with OVCAR 3; 51% with MCF-7; 99% with CCRF-CEM; 93% in the assay with MOLT-4. Besides, the inhibition at 198 µM stood at 37% with K562 (K562, 72 h); 96% in the assay with HL-60; 48% with RL; 80% in the assay with RPMI-8226; 92% in the assay with KG-1.

Consider `Nc1nc(Cl)nc2c1ncn2[C@@H]1O[C@H](COP(=O)(O)OP(=O)(Oc2ccccc2)N2CCCC2C(=O)OCc2ccccc2)[C@H](O)C1F` (stereo partly drawn) [Example 23, 2-Chloro-9-(2′-Deoxy-2′-fluoro-β-D-arabinofuranosyl)adenine-5′-O-[1-phenyl(benzoxy-L-prolinyl)] Diphosphate Triethylammonium Salt], for which the EC50 in the assay with HT29 (Table 4 classes) was 200 to 1000 nM; in the assay with HepG2 (Table 4 classes), 1000 to 5000 nM; with OVCAR 3 (Table 4 classes), greater than 10 µM; with CCRF-CEM (Table 4 classes), less than 200 nM; in the assay with MOLT-4 (Table 4 classes), less than 200 nM; with K562 (setting [1]), greater than 10 µM. Also, the EC50 was less than 200 nM in the assay with HL-60 (Table 4 classes), greater than 10 µM in the assay with RPMI-8226 (Table 4 classes) and less than 200 nM with KG-1 (Table 4 classes). In addition, the inhibition at 198 µM in the assay on HT29 came to 68%; with HepG2 it was 51%; in the assay on OVCAR 3 it was 63%; in the assay on MCF-7 it was 48%; in the assay with CCRF-CEM, 99%; in the assay on MOLT-4, 89%. In addition, the inhibition at 198 µM with K562 (K562, 72 h) was determined as 35%; in the assay with HL-60, 96%; with RL, 39%; in the assay on RPMI-8226 it was 85%; with KG-1, 93%.

As for `CC(C)C[C@H](NP(=O)(Oc1ccccc1)OP(=O)(O)OC[C@H]1O[C@@H](n2cnc3c(N)nc(Cl)nc32)[C@H](F)C1O)C(=O)OCc1ccccc1` (stereo partly drawn) [Example 21, 2-Chloro-9-(2′-Deoxy-2′-fluoro-β-D-arabinofuranosyl)adenine-5′-O-[1-phenyl(benzoxy-L-leucinyl)] Diphosphate Triethylammonium Salt], the EC50 is 200 to 1000 nM in the assay on HT29 (Table 4 classes); 200 to 1000 nM in the assay on HepG2 (Table 4 classes); greater than 10 µM in the assay with OVCAR 3 (Table 4 classes); less than 200 nM in the assay on CCRF-CEM (Table 4 classes); less than 200 nM in the assay with MOLT-4 (Table 4 classes); greater than 10 µM in the assay with K562 (setting [1]). Moreover, the 50% effective concentration (EC50) with HL-60 (Table 4 classes) is less than 200 nM; in the assay with RL (setting [2]) it was 1000 to 5000 nM; in the assay with RPMI-8226 (Table 4 classes), greater than 10 µM; in the assay on KG-1 (Table 4 classes), less than 200 nM. Further, the inhibition at 198 µM was found to be 69% in the assay on HT29; 53% in the assay with HepG2; 47% with OVCAR 3; 49% in the assay on MCF-7; 99% in the assay with CCRF-CEM; 90% with MOLT-4. In addition, the inhibition at 198 µM in the assay on K562 (K562, 72 h) was 32%; in the assay with HL-60, 96%; with RL, 70%; with RPMI-8226 it was 81%; in the assay with KG-1 it was 92%.
